{
  "source": "patent US20230255970A1",
  "about": "“COMPOSITIONS AND METHODS FOR TREATING PROLIFERATIVE DISEASES” (The Broad Institute, Inc., priority 2020, published 2023)",
  "key": {"[1]": {"tested_on": "YAP1 overexpression in U2OS cells", "assay": "Cell Painting morphological profile matching to YAP1/TAZ overexpression signature", "format": "cell-based, human", "in_short": "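Morphological profiles from Cell Painting (six fluorescent labels) in a single cell line at one time point, standardized plate-wise against control mean and SD, replicate profiles averaged feature-wise. Gene and compound signatures scored by Pearson correlation, large positive or negative correlations counted as matches.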"}, "[2]": {"tested_on": "U2OS cells", "assay": "Cell count in U2OS Cell Painting images", "format": "cell-based, human", "conditions": "U2OS Cell Painting", "in_short": "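Compound-treated U2OS cells were stained with six fluorescent labels and imaged, and morphological profiles were standardized plate-wise against controls. Replicate profiles were averaged into signatures. Compound and gene-overexpression signatures were matched by Pearson correlation.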"}, "[3]": {"tested_on": "H9 human pluripotent stem cells", "assay": "qPCR of YAP1, CTGF and CYR61 in H9 hPSCs", "format": "cell-based", "conditions": "24 hrs", "experimental": "(§1) H9 hPSCs (WiCell) were maintained on vitronectin (Thermo Fisher)-coated plates in Essential 8 (E8) medium. The cells were routinely passaged using 0.5 mM EDTA and treated with 5 μM Y-27632 dihydrochloride (Tocris) on the first day. For testing the effects of the small molecules, H9 hPSCs were seeded at 50K cells/cm^2 on vitronectin-coated plates in E8 medium supplemented with 5 μM Y-27632 dihydrochloride (day 0). On day 1, the medium was switched to E8 medium. On day 2, the medium was switched to E8 medium supplemented with the small molecules. Following overnight incubation, the cells were collected for subsequent analysis on day 3.\nThe RNA was extracted using TRIzol (Life Technologies) and Direct-zol™ RNA MiniPrep kit (Zymo Research) as per manufacturer instructions. The RNA was reverse transcribed using iScript cDNA synthesis kit (Bio-Rad). The qPCR was performed on CFX Connect (Bio-Rad) using iTaq Universal SYBR Green Supermix (Bio-Rad). GAPDH was used as a reference gene for normalization. The relative gene expression levels were determined using the ddCt method."}, "[4]": {"tested_on": "YAP1", "assay": "YAP1 immunofluorescence in H9 cells", "format": "cell-based, human", "conditions": "10 μM, 24 hours", "experimental": "as §1\nThe cells were fixed with 4% formaldehyde for 15 mins at room temperature. The cells were permeabilized and blocked with PBS containing 2% BSA and 0.1% Triton-X100. The cells were incubated with a primary antibody against YAP1 (sc-101199) at 1:1000 dilution in a blocking buffer overnight at 4° C. Then, a goat anti-mouse Alexa Fluor 488 conjugated secondary antibody was added for 1 hour at room temperature. […] Images were collected with Olympus FV1200 microscope and analyzed with CellProfiler. […] The cell cytoplasm was determined as the region outside nuclei but within the cell bodies. Then, an average pixel intensity of YAP in the nucleus and cytoplasm was calculated to determine YAP translocation"}, "[5]": {"tested_on": "TEAD luciferase reporter", "assay": "YAP1-responsive TEAD luciferase reporter assay in HEK293T cells", "format": "cell-based", "conditions": "10 μM, 48 h, HEK-293 cells", "experimental": "A TEAD luciferase reporter was co-transfected with or without a Yap expression construct into HEK293T cells followed by treatment for 48 hours with DMSO or the indicated compounds. The data shown are the average of three samples within a representative experiment.\nYAP1-related reporter assay: HEK293T cells were co-transfected using Lipofectamine 3000 (Thermo Fisher) with a TEAD luciferase reporter construct, 8×GTIIC-luciferase (Addgene plasmid #34615), a plasmid expressing Renilla Luciferase from a CMV promoter as a transfection control, along with a plasmid expressing 3×Flag-tagged wild-type YAP1 from a CMV promoter (pCMV5 backbone). Following transfection the cells were immediately treated with 0.2% DMSO, 10 μM NB4A, BRD-K34692511 or BRD-K28862419 and then lysed 48 hours later. Lysates were examined using the Dual-Luciferase Reporter Assay System (Promega) according to the manufacturer's protocol and measured using a SpectraMax iD3 plate reader (Molecular Devices). Firefly Luciferase activity from the TEAD reporter was normalized to Renilla Luciferase activity and then plotted as relative values."}, "[6]": {"tested_on": "KP230 cells", "assay": "Proliferation assay, KP230 cells", "format": "cell-based, mouse", "conditions": "10 μM daily for 72 hours", "from_the_text": "YAP1 cell culture and treatments: Eisinger lab: Murine KP230 cells, a Yap1-dependent cancer cell line, were derived from a tumor from the KP mouse model (Kras^G12/D; Trp53^f/fl), as described in Eisinger-Mathason, T. S. K. et al., Proc. Natl. Acad. Sci. U.S.A 112 (2015): E3402-11, which is hereby incorporated by reference in its entirety. STS-109 UPS cells were derived from a human UPS tumor and validated by Rebecca Gladdy, MD (Sinai Health System, Toronto, Ontario, Canada). TC32 cells were a gift from Patrick Grohar, MD, PhD (Children's Hospital of Philadelphia). HT-1080, HCT-116, and HEK293T cells were purchased from ATCC. KP230, HT-1080, and HEK-293T cells were grown in DMEM with 10% FBS, 1% L-glutamine, and 1% penicillin/streptomycin (P/S). STS-109 cells were cultured in DMEM with 20% FBS, 1% L-glutamine, and 1% P/S. TC32 cells were grown in RPMI with 10% FBS, 1% L-glutamine, and 1% P/S. HCT-116 cells were cultured in McCoy's 5A medium with 10% FBS and 1% P/S. All cells were confirmed to be negative for mycoplasma contamination and were maintained in an incubator at 37C with 5% CO2. For experimental purposes, cells were cultured for up to 20 passages before being discarded, and were grown to approximately 50% confluence to circumvent the effects of high cell density on Yap1 expression and activity. All cell lines in the Eisinger laboratory were treated with 10 μM of each inhibitor or an equivalent volume of DMSO every 24 hours for 3 days, except for STS-109 cells, which were treated daily for 8 days.\n(§2) NB4A treatment: Cells were treated with 10 μM of each inhibitor or an equivalent volume of DMSO every 24 hours for 3-8 days, and counted with a hemocytometer with trypan blue exclusion daily (KP230, HT-1080, TC32, HCT-116), or every 2 days (STS-109)."}, "[7]": {"tested_on": "KP230, TC32, STS-109, HT-1080, HCT-116 cells", "assay": "Trypan blue staining toxicity in the proliferation assay cell lines", "format": "cell-based", "conditions": "all tested cell lines", "experimental": "as §2"}, "[8]": {"tested_on": "TEAD-YAP interaction", "conditions": "HEK-TIYL cells, PubChem; cited from earlier work"}, "[9]": {"tested_on": "TAZ", "conditions": "HT29 cells, six hours; cited from earlier work"}},
  "data": [
    {"smiles": "c1ccc(CNc2ncnc3ccccc23)cc1", "note": "[BRD-K43796186, N-benzylquinazolin-4-amine]", "values": [
      {"measurement": "Cell Painting profile correlation with YAP1 overexpression", "setting": "[1]", "result": 0.46},
      {"measurement": "Corr. to YAP1 cluster", "setting": "[1]; Pearson correlation of Cell Painting signatures, U2OS cells", "result": 0.4622},
      {"measurement": "Avg. Cell Count z-score", "setting": "[2]", "result": "−0.5708"},
      {"measurement": "YAP1 expression", "setting": "[3]", "result": "did not affect"},
      {"measurement": "expression of YAP1 target genes (CTGF and CYR61)", "setting": "[3]", "result": "increased the expression of YAP1 target genes (CTGF and CYR61) in a dose-dependent manner"},
      {"measurement": "YAP1 nuclear localization", "setting": "[4]", "result": "increased YAP1 nuclear localization"},
      {"measurement": "YAP1-responsive (TEAD) reporter activity", "setting": "[5]", "result": "no effect"},
      {"measurement": "proliferation", "setting": "[6]", "result": "inhibited the proliferation"},
      {"measurement": "toxicity by trypan blue staining", "setting": "[7]", "result": "did not exhibit overt toxicity"},
      {"measurement": "inhibitors of TEAD-YAP interaction", "setting": "[8]", "result": "showed activity"},
      {"measurement": "TAZ mRNA z-score", "setting": "[9]", "result": 2.04}
    ]}
  ]
}
